Here are results for 4 molecules from patent US20100092402A1, “TREATMENT OF RESPIRATORY DISEASE” (Mucokinetica Ltd., priority 2007, published 2010).

One test concerns the target T1, ENaC (Homo sapiens, UniProt P37088+P51168+P51170).
T1 construct: Treatment of airway epithelial cells with BAY 39-9437 results in reduction of ENaC activity; host or cells: airway epithelial cells (Bridges et al 2001)
T1 sequence (P37088 1-669): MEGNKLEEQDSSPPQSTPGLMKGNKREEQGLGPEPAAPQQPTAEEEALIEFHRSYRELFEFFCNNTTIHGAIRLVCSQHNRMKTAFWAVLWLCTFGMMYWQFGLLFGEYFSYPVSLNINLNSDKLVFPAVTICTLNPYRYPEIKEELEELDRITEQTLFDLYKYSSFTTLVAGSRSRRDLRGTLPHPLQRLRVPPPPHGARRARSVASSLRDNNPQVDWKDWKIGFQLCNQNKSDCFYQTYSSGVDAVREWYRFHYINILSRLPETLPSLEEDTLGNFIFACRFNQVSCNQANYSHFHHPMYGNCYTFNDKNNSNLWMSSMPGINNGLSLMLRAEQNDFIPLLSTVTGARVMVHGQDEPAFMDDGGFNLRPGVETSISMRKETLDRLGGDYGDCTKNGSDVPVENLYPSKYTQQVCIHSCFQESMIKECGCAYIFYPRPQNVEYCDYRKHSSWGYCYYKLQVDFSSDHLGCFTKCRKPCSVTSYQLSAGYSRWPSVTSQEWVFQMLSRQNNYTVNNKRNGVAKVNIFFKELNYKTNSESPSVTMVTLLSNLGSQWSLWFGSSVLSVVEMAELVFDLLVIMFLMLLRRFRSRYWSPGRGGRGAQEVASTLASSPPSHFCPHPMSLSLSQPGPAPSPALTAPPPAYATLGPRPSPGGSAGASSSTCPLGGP
T1 sequence (P51168 1-640): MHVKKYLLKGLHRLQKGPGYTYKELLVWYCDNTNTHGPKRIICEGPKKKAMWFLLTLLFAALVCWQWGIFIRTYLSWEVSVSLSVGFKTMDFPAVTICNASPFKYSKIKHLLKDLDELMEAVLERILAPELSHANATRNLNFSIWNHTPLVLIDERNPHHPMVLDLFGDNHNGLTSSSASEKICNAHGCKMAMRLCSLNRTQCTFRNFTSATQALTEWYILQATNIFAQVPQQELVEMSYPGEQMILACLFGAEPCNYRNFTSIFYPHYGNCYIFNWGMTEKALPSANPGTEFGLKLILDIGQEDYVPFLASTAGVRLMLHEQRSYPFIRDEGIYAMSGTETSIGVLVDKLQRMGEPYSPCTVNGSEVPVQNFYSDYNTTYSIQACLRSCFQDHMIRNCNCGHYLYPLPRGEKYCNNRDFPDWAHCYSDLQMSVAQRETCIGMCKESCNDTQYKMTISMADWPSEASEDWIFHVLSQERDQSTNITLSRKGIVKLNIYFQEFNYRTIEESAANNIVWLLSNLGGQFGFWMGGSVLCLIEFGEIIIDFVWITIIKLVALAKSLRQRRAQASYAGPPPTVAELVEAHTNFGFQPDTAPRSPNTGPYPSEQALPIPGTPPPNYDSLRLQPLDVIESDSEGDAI
T1 sequence (P51170 1-649): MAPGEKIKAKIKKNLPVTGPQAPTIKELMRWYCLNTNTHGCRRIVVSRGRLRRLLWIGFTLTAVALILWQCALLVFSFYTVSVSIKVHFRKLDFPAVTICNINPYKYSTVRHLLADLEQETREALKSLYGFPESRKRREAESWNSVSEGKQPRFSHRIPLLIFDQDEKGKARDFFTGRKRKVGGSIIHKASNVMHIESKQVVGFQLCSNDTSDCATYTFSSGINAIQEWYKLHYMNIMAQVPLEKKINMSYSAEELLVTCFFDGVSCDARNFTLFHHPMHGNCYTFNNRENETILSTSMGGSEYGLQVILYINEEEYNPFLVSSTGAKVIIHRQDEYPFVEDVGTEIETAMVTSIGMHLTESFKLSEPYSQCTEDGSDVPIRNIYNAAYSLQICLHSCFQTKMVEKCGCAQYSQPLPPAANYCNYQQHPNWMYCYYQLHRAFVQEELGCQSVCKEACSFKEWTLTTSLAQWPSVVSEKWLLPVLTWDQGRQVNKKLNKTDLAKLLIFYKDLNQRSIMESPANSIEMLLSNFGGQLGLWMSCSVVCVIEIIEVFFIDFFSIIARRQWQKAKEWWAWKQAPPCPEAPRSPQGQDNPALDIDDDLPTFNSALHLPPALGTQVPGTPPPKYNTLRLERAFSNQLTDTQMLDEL
The conditions noted are these: same range as 50% to 70% of amiloride inhibition; Bridges et al. 2001; cited from earlier work.

Test [1] has as its target T2, epithelial amiloride-sensitive sodium channel (ENaC) (Homo sapiens, UniProt P37088+P51168+P51170).
T2 sequence (P37088 1-669): T1 sequence (P37088 1-669)
T2 sequence (P51168 1-640): T1 sequence (P51168 1-640)
T2 sequence (P51170 1-649): T1 sequence (P51170 1-649)
Type of test: cell-based. The conditions noted are these: 1 μM or 100 μM, 90 min. As for the experimental part:
(§1) Human bronchial epithelial (HBE) cells were purchased from Cambrex Bioscience Ltd, UK., and were stored frozen in liquid nitrogen until required for use.
(§2) HBE cells were amplified by growing in secondary culture according to the suppliers' instructions. Cells were seeded at densities of between 3,000 to 4,000/cm^2 in plastic T-25 culture flasks in bronchial epithelial cell growth medium (BEGM) prepared from bronchial epithelial basal medium (BEBM, Cambrex, UK) supplemented with bovine pituitary extract, hydrocortisone, human epidermal growth factor, epinephrine, transferrin, insulin, retinoic acid, triiodothyronine, gentamicin, and amphotericin B. Cultures were maintained at 37° C. in 5% CO2 in a humidified incubator. Medium was changed every 1 to 3 days until cells were approximately 90% confluent. Cells were then passaged with trypsin EDTA according to the suppliers' instructions, and either used for further cell cultures, or cryopreserved in liquid nitrogen in BEGM containing 10% foetal bovine serum and 10% DMSO.
(§3) HBE cells were prepared for electrophysiology studies by growing as tertiary cultures on Snapwell (Corning) 0.4μ clear polyester membrane inserts 1.2 cm^2 coated with collagen IV (Sigma). Cells were seeded at approximately 10^5/cm^2 in 0.5 ml 1:1 DMEM (Cambrex, UK) BEGM containing bovine pituitary extract (50 μg/ml), hydrocortisone (0.5 μg/ml), human epidermal growth factor (0.5 ng/ml), epinephrine (0.5 μg/ml), transferrin (10 μg/ml), insulin (5 μg/ml), retinoic acid (50 nM), and gentamicin (50 μg/ml) (Danahay medium; Danahay et al. 2002). Snapwell inserts were mounted in 6-well plates with 3 ml Danahay medium in the wells, and grown at 37° C. in 5% CO2 in a humidified incubator. Medium was changed every 1 to 3 days. An apical air-liquid interface (ALI) was established as the cells achieved confluence (3 to 6 days) by removal of medium from the centre of the insert. Confluent differentiated bronchial epithelial cells were used for electrophysiology studies at between 15 and 29 days after establishing ALI.
(§4) Differentiated HBE cells grown to confluence at an air-liquid interface for 15 to 29 days were used to study substances for ability to achieve long duration down regulation of the epithelial amiloride-sensitive sodium channel (ENaC).
(§5) Step 1: Treatment with substance. For each group of cells treated with a substance, 30 μl of 100 times final concentration of substance was added to the 3 ml basolateral culture medium, mixed and 150 μl of the resultant basolateral fluid was transferred to the apical surface for 5 min. For non-treatment control groups of basolateral fluid with no added substance was transferred to the apical surface. After 5 min. equilibration the excess apical fluid was then transferred back to the basolateral side of the culture well.
(§6) Step 2: Variable period of incubation with the substance. Dependent on the individual experiment the cells were returned to the 37° C. incubator for periods of 0 min. to 120 min.
(§7) Step 3: Period of substance washout with fresh culture medium. For experiments to study the duration of a substance response the HBE cells on Snapwell inserts were washed with fresh culture medium (no added substance) at 37° C. and placed in fresh 6-well plates containing 3 ml fresh culture medium (no added substance) on the basolateral side. […] Step 3 was omitted in studies where the duration of the substance response was not investigated.
(§8) Step 4: Wash with Krebs-Ringer buffer and assembly in Ussing chambers. The Snapwell insert cultures of HBE cells were removed from the 6-well plates and washed with excess Krebs-Ringer buffer (120 mM-NaCl, 25 mM-NaHCO3, 3.3 mM-KH2PO4, 0.8 mM-K2HPO4, 1.2 mM-CaCl2, 1.2 mM-MgCl2, 10 mM-glucose) pH7.4 at 37° C. The inserts were then mounted in Ussing chambers (Snapwell diffusion chambers, Costar UK Ltd.). Each side of the chamber was filled with 5 ml Krebs-Ringer buffer and gassed continuously with 95% O2/5% CO2 at 37° C. […]

Test [2] deals with cortical collecting duct of the rabbit kidney. The settings on record: perfused; Muto et al. 1994; cited from earlier work.
In test [3] the target is T3, epithelial amiloride-sensitive sodium channel (ENaC) (Homo sapiens, UniProt P37088+P51168+P51170).
T3 construct: Differentiated HBE cells grown to confluence at an air-liquid interface for 15 to 29 days were used; host or cells: primary human bronchial epithelial (HBE) cells, differentiated at air-liquid interface
Type of test: cell-based. As for the experimental part: as §1, §2, §3, §4, §5, §6, §7, §8

Test [4] has as its system amiloride-sensitive (sodium-dependent) component of nasal PD. As to the kind of experiment: Nasal PD measurement during perfusion of human nasal epithelium. Type of test: in vivo. The settings on record: perfusion with 10^−5 M-amiloride. The method, then: The method of measurement of nasal PD was an adaptation of that described by Standaert et al. (2004).
Ringer/HEPES buffer solution was prepared containing 148 mM-NaCl, 4.05 mM-KCl, 1.2 mM-CaCl2, 1.2 mM-MgCl2, 2.4 mM-K2HPO4, 0.4 mM-KH2PO4, 10 mM-HEPES, and adjusted to pH 7.4. Low chloride Ringer/HEPES buffer solution was prepared by replacing NaCl with 148 mM-Na gluconate in the Ringer solution components.
Agar electrodes were prepared with 3.7% agarose dissolved in Ringer/HEPES buffer pH 7.4. The reference electrode was placed and taped in contact with a small area on the forearm where the epidermis had been removed by gentle abrasion. A dual lumen nasal recording electrode was prepared using a lm length of soft plastic tubing 2.4 mm diameter, into which 1 mm diameter polythene tubing was inserted through the wall and along the lumen for 15 cm from one end. The 2.4 mm diameter tubing was filled with 3.7% agarose dissolved in Ringer/HEPES buffer pH 7.4. The 1 mm diameter tubing was used for perfusion of buffer solutions and drugs to the nasal epithelium. The ends of the agar electrodes were each placed in contact with a calomel half-cell in 3 M-KCl solution. Voltages were measured by connecting the calomel electrodes to a high impedance voltmeter (Keithley 617 programmable electrometer). Output from the voltmeter was recorded by connection to a Biopac MP100 data aquisition unit and PC running Acqknowledge III data acquisition software.
Nasal PD was recorded via the recording electrode placed in contact with the nasal epithelium approximately 4 cm inside the nostril. The nasal epithelium was perfused according to the following schedule and nasal PD was recorded continuously.
1. Ringer/HEPES buffer was perfused at 0.5 ml/min for 5 min, and starting baseline PD was recorded.
2. Perfusion was then switched to low chloride Ringer/HEPES buffer pH 7.4 for 30 min during which time initial hyperpolarisation of the epithelium occurred.
3. The nasal epithelium was then perfused with 10^−5 M-amiloride in low chloride Ringer/HEPES buffer pH 7.4 for 10 min. Measurement of the amiloride-sensitive (sodium-dependent) component of nasal PD was then made by measuring the difference between the average PD recorded over the 2 min before perfusion with amiloride and the average PD recorded in the period 4 to 6 min after perfusion with amiloride.
4. Amiloride was washed away from the nasal epithelium by perfusion with low chloride Ringer/HEPES buffer pH 7.4 for 30 min.
5. Steps 3 and 4 were then repeated twice more.
6. The nasal epithelium was then perfused with 3 μM 6-amidino-2-napthyl 4-guanidinobenzoate in low chloride Ringer/HEPES buffer pH 7.4 for 60 min.
7. Steps 3 and 4 were then repeated a further twice, followed by either a period of administration of amiloride (3 experiments), or a final repetition of both steps 3 and 4 (1 experiment).
Over the 5 h time course of each experiment nasal PD drifted and oscillated. […] Changes in nasal PD caused by perfusion of amiloride were calculated as the difference between the mean PD recorded in the 2 min period before perfusion with amiloride and the mean PD recorded in the plateau period 4 to 6 min after start of perfusion with amiloride. Within each experiment the change in nasal PD at each period of application of amiloride was expressed as a percentage of the maximum change observed in the experiment.

Another test relates to nasal epithelium. Nature of the test: Mucus host-defence responses during nasal perfusion. Type of test: in vivo, human. The conditions noted are these: perfusion with 10^−5 M in low chloride Ringer/HEPES buffer. From the text: Perfusion of the nasal epithelium with low chloride Ringer/HEPES buffer imposes a chemical gradient for chloride secretion, and therefore also provides a drive for fluid secretion.
Mucus host-defence episodes were scored 1 to 3 on the basis of the number of features and the magnitude of the responses observed. FIG. 10 reports the score of the episodes recorded, and indicates the time of their occurrence in the perfusion protocol.

Where two headings read alike, the source gives them in different places.

Turning to aprotinin, the “efficacy compared with high dose amiloride” value on ENaC is “same range”.

Turning to `N=C(N)Nc1ccc(C(=O)O)cc1` [pGBA, p-guanidinobenzoic acid], the “amiloride ΔIsc compared to control” value in test [1] (HBE 22 d, 17 d ALI (FIG. 8A)) is reported as “not significantly different”. The minimum effective concentration in test [2] was 10^−5 M.

For the molecule `N=C(N)c1ccc2cc(O)ccc2c1` [AN, 6-amidino-2-naphthol], the “amiloride ΔIsc compared to control” value in test [1] (HBE 34 & 35 d, 28 & 29 d ALI (FIG. 8B)) was “not significantly different”. Moreover, in test [2], the minimum effective concentration was 10^−4 M.

Take `N=C(N)NC(=O)c1nc(Cl)c(N)nc1N` [amiloride]: the “ΔIsc (amiloride addition)” value in test [3] (10 μM amiloride apical, HBE cells 24 d in culture, 21 d ALI, FIG. 1) is reported as 9.2 μAmp. Also, in test [3] (10 μM-amiloride, apical surface), the “time for short circuit current to fall to new plateau after application of amiloride” value was at most 2 min. Besides, the “time at which partial depolarisation of nasal epithelium was observable” value in test [4] is at most 2 min. Further, the mucus host-defence responses result in the test on nasal epithelium is “stimulated episodes of mucus host-defence responses”.
